Results taken from patent publication US20020028248A1, “RAPID-RELEASE MICRODISPERSIBLE ECADOTRIL PREPARATION” (priority 1996, published 2002).
Read-outs that look alike come from different tables or passages of the source.

Key:
[1] = Solubility of Ecadotril in water; format: physicochemical; conditions: 37 °C
From the text: Ecadotril (N-[(S)-α-(mercaptomethyl)hydrocinnamoyl]glycine, benzyl ester, acetate(ester); N-[(S)-α-(acetylthiomethyl)hydrocinnamoyl]glycine, benzyl ester) is an enkephalinase inhibitor used as a hypotensive drug, a cardiac insufficiency therapeutic drug, or the like. […] Therefore, when formulated into tablets, capsules, or the like by conventional methods, sufficient absorbability of Ecadotril in the digestive tract cannot be obtained because of low dispersibility of drug particles. Thus, a preparation of Ecadotril with improved bioavailability, in particular a tablet with high content, has been demanded. Generally, it is known that in order to obtain sufficient absorbability of such water-insoluble drugs, the solubility (dissolving rate) of the drugs is enhanced. For example, Japanese Laid-Open Patent Publication No. 7-76516 discloses a method for spray drying dispersions in which finely ground drug particles and a hydrophilic excipient are dispersed in water. However, according to this method, when powder to be obtained is formulated into tablets, there is a possibility that drug particles come into close contact with each other thereby decreasing the disintegration property and absorbability of the preparation. Furthermore, in the case where water-insoluble drugs such as Ecadotril with a low melting point and high plasticity are used, particles are likely to aggregate. […]

[2] = Dissolution test (in vitro test), paddle method; format: physicochemical; conditions: 100 mg of the preparation, distilled water 900 ml, 37° C.
Method: (2) Dissolution test (in vitro test) Apparatus: Dissolution test machine in accordance with The 12th revised Japanese Pharmacopoeia using the paddle method a stirring speed 100 rpm. Test solution: Distilled water 900 ml, 37° C. Collection of solution: Eluates are collected 5, 10, 15, 30, 45, and 60 minutes after the commencement of dissolution, and the respective eluates are filtrated through […] 13; Kento Chemical Co., Ltd.) aqueous filter (0.22 μm). Then, about 1.5 ml each of the filtrates is collected. One milliliter of this filtrate or standard solution is mixed with 1 ml of internal standard, and 25 μl of the mixed solution is injected to HPLC.

CC(=O)SC[C@@H](Cc1ccccc1)C(=O)NCC(=O)OCc1ccccc1 [Ecadotril, N-[(S)-α-(mercaptomethyl)hydrocinnamoyl]glycine, benzyl ester, acetate(ester)]
solubility ([1]; read-out: solubility in water): ~33 µg/mL | solubility ([1]; read-out: solubility of Ecadotril in water): 33 µg/mL | maximum dissolution amount in the present test [2]: about 30%
